Data taken from US10344019B2 (priority 2010, dated 2019).
pEC50: −log10 of the molar value. Like-named read-outs stand apart in the source and are kept apart here.

Key:
Assay in all cases: microbe, parasite or virus in culture
Format in all cases: cell-based
[1] = tested on: HCV 2a JFH-1 Rluc cells (dicistronic genotype 2a JFH-1 replicon, RLuc reporter); conditions: genotype 2a JFH-1 replicon, RLuc reporter, read-out: 2a JFH
Experimental: (§1) Evaluation of cell-based anti-HCV activity: Antiviral potency (EC50) was determined using a Renilla luciferase (RLuc)-based HCV replicon reporter assay. To perform the assay for genotype 1 and 2a JFH-1, HCV 1b RLuc cells (harboring a dicistronic genotype 1b Con1 replicon that encodes a RLuc reporter), or HCV 1a RLuc cells (harboring a dicistronic genotype 1a H77 replicon that encodes a RLuc reporter), or HCV 2a JFH-1 Rluc cells (harboring a dicistronic genotype 2a JFH-1 replicon that encodes a RLuc reporter) were dispensed into 384-well plates. To perform the assay for genotype 2a (with M31 present) or 2b, HCV 2a Rluc or 2b Rluc cells (both with M31 present) harboring a dicistronic NS5A chimeric genotype 2a JFH-1 replicon that encodes a RLuc reporter and either genotype 2a J6 strain NS5A gene or genotype 2b MD2b-1 NS5A gene (based on Los Alamos HCV database isolates, both with M31 present) respectively, were dispensed into 384-well plates. To perform the assay for genotype 3 and 4, HCV 3a RLuc or 4a Rluc cells harboring a dicistronic NS5A chimeric genotype 1b Con1 replicon that encodes a RLuc reporter and either a consensus genotype 3a NS5A gene or genotype 4a NS5A gene (based on Los Alamos HCV database isolates) respectively, were dispensed into 384-well plates. Compounds were re-suspended in DMSO at a concentration of 10 mM and serially diluted in DMSO either manually or using an automated pipeting instrument. Serially diluted compounds were mixed with cell culture media and added to the seeded cells. […] 72 hours later, cells were lysed and Renilla luciferase activity quantified as recommended by the manufacturer (Promega-Madison, Wis.). Non-linear regression was performed to calculate EC50 values.

[2] = tested on: HCV 1b RLuc cells (dicistronic genotype 1b Con1 replicon, RLuc reporter); conditions: for pEC50: read-out: 1b; for EC50: Hepatitis C virus, read-out: 1b (nM)
Experimental: as §1

[3] = tested on: HCV 1a RLuc cells (dicistronic genotype 1a H77 replicon, RLuc reporter); conditions: genotype 1a H77 replicon, RLuc reporter, read-out: 1a
Experimental: as §1

[4] = tested on: HCV 3a RLuc cells (NS5A chimeric genotype 1b Con1 replicon with consensus genotype 3a NS5A gene)
Experimental: as §1

[5] = read-out: 3a, genotype 3a NS5A chimeric 1b Con1 replicon
[6] = Hepatitis C virus, read-out: 3a, genotype 3a NS5A chimeric 1b Con1 replicon

Row | Structure (SMILES) | pEC50 ([1]; Hepatitis C virus) | pEC50 [2] | pEC50 ([3]; Hepatitis C virus) | pEC50 [4, 5] | pEC50 [1] | pEC50 [3] | EC50 [2] [nM] | pEC50 [4, 6]
1 | COC(=O)N[C@H](C(=O)N1CCC[C@H]1c1ncc(-c2ccc3cc(-c4ccc(-c5cnc([C@@H]6CCCN6C(=O)[C@H](NC(=O)OC)c6ccccc6F)[nH]5)cc4)ccc3c2)[nH]1)C(C)C [Example 148] | 9.00 to 12.00 | 10.70 | 9.00 to 12.00 | 8.30 to 9.00 | – | – | – | –
2 | COC(=O)N[C@H](C(=O)N1CCC[C@H]1c1ncc(-c2ccc3cc(-c4ccc(-c5cnc([C@@H]6CCCN6C(=O)[C@H](NC(=O)OC)c6ccccc6F)[nH]5)cc4)ccc3c2)[nH]1)C(C)C [Example 149] | – | 11.30 | – | 9.00 to 12.00 | 9.00 to 12.00 | 9.00 to 12.00 | – | –
3 | COC(=O)N[C@H](C(=O)N1CCC[C@H]1c1ncc(-c2ccc3cc(-c4ccc(-c5cnc([C@@H]6CCCN6C(=O)[C@H](NC(=O)OC)c6ccccc6C)[nH]5)cc4)ccc3c2)[nH]1)C(C)C [Example 150] | 9.00 to 12.00 | – | 9.00 to 12.00 | – | – | – | 0.006 | 9.00 to 12.00
4 | COC(=O)N[C@H](C(=O)N1CCC[C@H]1c1ncc(-c2ccc3cc(-c4ccc(-c5cnc([C@@H]6CCCN6C(=O)C(c6ccc7c(c6)OCO7)N(C)C)[nH]5)cc4)ccc3c2)[nH]1)C(C)C (stereo partly drawn) [Example 151] | 7.36 to 9.00 | – | 7.36 to 9.00 | – | – | – | 0.038 | 8.30 to 9.00
5 | COC(=O)N[C@H](C(=O)N1CCC[C@H]1c1ncc(-c2ccc3cc(-c4ccc(-c5cnc([C@]6(F)CCCN6C(=O)[C@H]6c7ccccc7CCN6C)[nH]5)cc4)ccc3c2)[nH]1)C(C)C [Example 152] | < 7.36 | – | < 7.36 | – | – | – | 0.751 | 8.30 to 9.00
6 | COC(=O)N[C@H](C(=O)N1CCCC1c1ncc(-c2ccc3cc(-c4ccc(-c5cnc([C@@H]6CCCN6C(=O)[C@H](NC(=O)OC)c6ccccc6)[nH]5)cc4)ccc3c2)[nH]1)C1CCOCC1 (stereo partly drawn) [Example 153] | 9.00 to 12.00 | – | 9.00 to 12.00 | – | – | – | 0.012 | 9.00 to 12.00
7 | COC(=O)N[C@H](C(=O)N1CCC[C@H]1c1ncc(-c2ccc(-c3ccc4cc(-c5cnc(C6CCCN6C(=O)[C@H](NC(=O)OC)c6ccccc6)[nH]5)ccc4c3)cc2)[nH]1)C1CCOCC1 (stereo partly drawn) [Example 154] | 9.00 to 12.00 | – | 9.00 to 12.00 | – | – | – | 0.014 | 9.00 to 12.00
8 | CN(C)C(C(=O)N1CCC[C@H]1c1ncc(-c2ccc3cc(-c4ccc(-c5cnc([C@@H]6CCCN6C(=O)[C@H](C6CCOCC6)N(C)C)[nH]5)cc4)ccc3c2)[nH]1)c1ccccc1 (stereo partly drawn) [Example 156] | 9.00 to 12.00 | – | 9.00 to 12.00 | – | – | – | 0.028 | 9.00 to 12.00
9 | CCO[C@H]1C[C@@H](c2ncc(-c3ccc(-c4ccc5cc(-c6cnc([C@@H]7CCCN7C(=O)[C@@H](NC(=O)OC)C(C)C)[nH]6)ccc5c4)cc3)[nH]2)N(C(=O)[C@@H](c2ccccc2)N(C)C)C1 [Example 158] | 9.00 to 12.00 | – | 9.00 to 12.00 | – | – | – | 0.01 | 9.00 to 12.00
10 | COC(=O)N[C@H](C(=O)N1CCC[C@H]1c1ncc(-c2ccc(-c3ccc4cc(-c5cnc([C@@H]6CCCN6C(=O)[C@@H](NC(=O)OC)C(C)C)[nH]5)ccc4c3)cc2)[nH]1)c1cccnc1 [Example 160] | 9.00 to 12.00 | – | 9.00 to 12.00 | – | – | – | 0.017 | 9.00 to 12.00
11 | COC(=O)N[C@H](C(=O)N1CCC[C@H]1c1ncc(-c2ccc3cc(-c4ccc(-c5cnc([C@@H]6CCCN6C(=O)[C@H](NC(=O)OC)c6cccnc6)[nH]5)cc4)ccc3c2)[nH]1)C(C)C [Example 161] | 9.00 to 12.00 | – | 9.00 to 12.00 | – | – | – | 0.019 | 9.00 to 12.00
12 | COC(=O)N[C@H](C(=O)N1CCC[C@H]1c1ncc(-c2ccc3cc(-c4ccc(-c5cnc([C@@H]6CCCN6C(=O)[C@](C)(NC(=O)OC)c6ccccc6)[nH]5)cc4)ccc3c2)[nH]1)C(C)C [Example 162] | 7.36 to 9.00 | – | 7.36 to 9.00 | – | – | – | 0.01 | 8.30 to 9.00
